# Article PMC8776995 (Frontiers in Chemistry, 2022)
# Values joined by “and” are separate entries in the source; they are usually repeats but may differ in a detail not shown here. Identical values can stand only once. Like-named read-outs stand apart in the source and are kept apart here.
# Legend:
# A549 cells = experiment: CCK-8 antiproliferation assay, A549; settings: for Inhibitory efficacy: A549 cells
# [1] = tested on: EGFR phosphorylation (Tyr1068) in PC-9 cells; experiment: Western blot, p-EGFR/EGFR in PC-9; settings: for p-EGFR/EGFR: band density ratio; for p-EGFR/EGFR relative to DMSO: ratio normalised to DMSO = 1
# Protocol: (§3) We also performed western blot analysis to evaluate the impact of e4 and e12 on EGFR signaling in PC-9 and H460 cells.
# (§4) H460 cells were seeded in six-well plates with serum-free medium overnight, and then treated complete medium containing 0.1% DMSO, various concentrations (0.1, 1 and 10 μM) of either compound e4 or e12 for 2 h, respectively. […] Then the H460 cells were treated with complete medium containing EGF (10 ng/ml) for 5 min. Then the cells were harvested and washed with PBS, centrifuged, resuspended in 100–200 μl of RIPA lysis buffer containing Protease and Phosphatase Inhibitor Cocktail (1X), and then centrifuged for 5 min at 12,000 rpm at 4°C. The supernatant was used for protein analysis. […] Then the membrane was washed 5 min (X3) and incubated at 1:3,000 dilution of anti-rabbit secondary antibodies or 1:1,000 dilution of anti-mouse secondary antibodies for 1 h at RT. After washing with TBST 5 min (X3), protein bands were developed by chemiluminescence. The protein levels were quantified by the gray values of the bands in the resulting images by ImageJ, and the control group was used as the standard. […] The PC-9 cells were harvested and analyzed as above.
# PC-9 cells [2] = experiment: Hoechst 33342 staining for cell apoptosis; assay type: cell-based, human; settings: PC-9, various concentrations, 48 h, vs 0.1% DMSO
# Protocol: To further verify the impact of compounds e4 and e12 on apoptosis of NSCLC cells, PC-9 cells were treated with either compound e4 or e12 at various concentrations for 48 h and then stained with dye Hoechst 33342.
# PC-9 cells were seeded in 96-well plates, then treated with 0.1% DMSO (as control) or various concentrations of compound e4 or e12 for 48 h. Culture medium from the cells was removed and replaced with medium containing dye Hoechst 33342. Cells were incubated at 37°C for 5–15 min, washed with PBS twice, and then observed and imaged under the Nikon Ti-U microscope.
# [3] = tested on: EGFR phosphorylation (Tyr1068) in H460 cells; experiment: Western blot, p-EGFR/EGFR in H460; settings: for p-EGFR/EGFR: band density ratio; for p-EGFR/EGFR relative to DMSO: ratio normalised to DMSO
# Protocol: as §3, §4
# H460 cells [4] = experiment: Flow cytometry detection for cell cycle, H460; assay type: cell-based, human; settings: for G0/G1 / G2/M / S: single experiments (20200711, 20200810, 20200812)
# Protocol: (§1) To investigate the effects of compounds e4 and e12 on various phases of the cell cycle, PC-9 cells were treated with compound e4 or e12 of various concentrations for 24 h, and H460 cells were treated with compound e4 or e12 of various concentrations for 12 h.
# (§2) PC-9 or H460 (2 × 10^5–3 × 10^5/well) cells were seeded in six-well plates for 24 h, and then treated with 0.1% DMSO (as control), various concentrations of either compound e4 or e12 for 24 h (PC-9) or 12 h (H460), respectively. The treated cells were harvested, washed with PBS, and then stained using the cell-cycle staining kit according to the manufacturer’s manual. The distribution of cell-cycle phases with different DNA contents was determined by flow cytometry (BD LSRFortessa™ Flow Cytometer) and analyzed using ModFit LT software.
# wild-type EGFR = wild-type EGFR (Homo sapiens, UniProt P00533); experiment: EGFR kinase assay (ELISA); settings: for A450: raw ELISA absorbance
# Protocol: The kinase enzyme of EGFR was purchased from Carna Bioscience (Kobe, Japan). A total of 10 ng/ml anti phosphotyrosine (PY713) antibody (abcam, Cambridge Science Park, United Kingdom) was precoated in 96-well ELISA plates. […] Then, a total of 3 μmol/L ATP was added and the reaction was continued for 2 h. […] After incubation, the wells were washed with PBS and then incubated with horseradish peroxidase (HRP)-conjugated streptavidin. The wells were visualized using 3,3′,5,5′-tetramethylbenzidine (TMB), and chromogenic reaction was ended with 2 mol/L H2SO4, the absorbance was read with a multimode plate reader (PerkinElmer, United States) at 450 nm.
# [5] = tested on: AKT phosphorylation (S473) in PC-9 cells; experiment: Western blot, p-AKT/AKT in PC-9; settings: for p-AKT/AKT: band density ratio; for p-AKT/AKT relative to DMSO: ratio normalised to DMSO = 1
# Protocol: as §3, §4
# PC-9 cells [6] = experiment: Flow cytometry detection for cell cycle, PC-9; assay type: cell-based, human; settings: for G0/G1 / G2/M / S: single repeats (Repeat 1-3)
# Protocol: as §1, §2
# H460 cells [7] = experiment: CCK-8 antiproliferation assay, H460; settings: for Inhibitory efficacy: H460 cells
# H1975 cells = experiment: CCK-8 antiproliferation assay, H1975; settings: given as fraction, Repeat 1-3; for Inhibitory efficacy: H1975 cells
# [8] = tested on: AKT phosphorylation (S473) in H460 cells; experiment: Western blot, p-AKT/AKT in H460; settings: for p-AKT/AKT: band density ratio; for p-AKT/AKT relative to DMSO: ratio normalised to DMSO
# Protocol: as §3, §4
# [9] = 8uM, given as fraction, Repeat 1-3
# [10] = 16uM, given as fraction, Repeat 1-3
# wild-type EGFR, sequence (P00533 25-1210): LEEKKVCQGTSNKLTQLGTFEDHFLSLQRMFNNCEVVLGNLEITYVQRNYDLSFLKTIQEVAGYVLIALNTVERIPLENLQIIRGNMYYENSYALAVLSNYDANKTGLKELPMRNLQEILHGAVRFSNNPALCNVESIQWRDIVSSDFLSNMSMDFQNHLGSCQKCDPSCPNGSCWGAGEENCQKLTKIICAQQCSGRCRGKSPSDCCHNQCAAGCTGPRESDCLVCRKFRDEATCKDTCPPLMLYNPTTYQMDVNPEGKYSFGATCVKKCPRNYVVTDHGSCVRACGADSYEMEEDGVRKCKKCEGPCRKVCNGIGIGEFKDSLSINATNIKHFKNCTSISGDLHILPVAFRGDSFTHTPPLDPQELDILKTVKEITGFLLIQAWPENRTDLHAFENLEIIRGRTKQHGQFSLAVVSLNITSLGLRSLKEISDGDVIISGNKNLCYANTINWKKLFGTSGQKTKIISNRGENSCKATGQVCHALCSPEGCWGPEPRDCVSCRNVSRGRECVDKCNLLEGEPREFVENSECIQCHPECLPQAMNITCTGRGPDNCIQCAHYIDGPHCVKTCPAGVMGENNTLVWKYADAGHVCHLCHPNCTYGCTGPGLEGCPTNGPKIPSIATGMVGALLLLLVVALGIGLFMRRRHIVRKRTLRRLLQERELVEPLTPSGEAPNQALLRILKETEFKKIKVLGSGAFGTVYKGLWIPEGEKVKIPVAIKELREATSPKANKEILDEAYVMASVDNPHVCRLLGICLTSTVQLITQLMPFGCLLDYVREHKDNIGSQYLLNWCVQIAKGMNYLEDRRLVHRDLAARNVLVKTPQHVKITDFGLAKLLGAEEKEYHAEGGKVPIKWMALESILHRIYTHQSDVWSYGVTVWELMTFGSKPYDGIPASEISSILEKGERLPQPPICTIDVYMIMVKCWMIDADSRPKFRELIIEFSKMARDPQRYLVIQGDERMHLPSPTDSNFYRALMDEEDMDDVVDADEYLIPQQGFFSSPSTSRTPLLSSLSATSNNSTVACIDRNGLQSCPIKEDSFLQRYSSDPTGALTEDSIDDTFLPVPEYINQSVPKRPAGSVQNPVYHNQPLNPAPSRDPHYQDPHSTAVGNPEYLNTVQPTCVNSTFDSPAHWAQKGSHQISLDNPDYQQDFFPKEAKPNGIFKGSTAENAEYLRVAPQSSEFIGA
smiles,measurement,setting,value
"COCCOc1cc2ncnc(Nc3cccc(-c4cn(Cc5cc(Br)cc(Br)c5)nn4)c3)c2cc1OCCOC [e4, [6,7-Bis-(2-methoxy-ethoxy)-quinazolin-4-yl]-{3-[1-(3,5-dibromo-benzyl)-1H-[1,2,3]triazol-4-yl]-phenyl}-amine]",Inhibitory efficacy,"A549 cells; 4uM, given as fraction, Repeat 1-3",0.2144 and 0.2227
same,Inhibitory efficacy,A549 cells; [9],0.7075 and 0.6166
same,Inhibitory efficacy,A549 cells; [10],0.9444 and 0.9355
same,IC50,"A549 cells; Homo sapiens, A549, 48 h, read-out: IC50 (μM) A549, CCK-8, 48 h, average ± SD of three independent experiments",< 10 µM
same,inhibition at 4 µM,"A549 cells; Homo sapiens, A549, read-out: Inhibitory efficacy, A549 cells, 4uM, given as fraction, Repeat 1-3",35.6%
same,inhibition at 8 µM,"A549 cells; Homo sapiens, A549, read-out: Inhibitory efficacy, A549 cells, 8uM, given as fraction, Repeat 1-3",75.6%
same,inhibition at 16 µM,"A549 cells; Homo sapiens, A549, read-out: Inhibitory efficacy, A549 cells, 16uM, given as fraction, Repeat 1-3",94.8%
same,IC50,"A549 cells; read-out: IC50 (μM) A549, CCK-8, 48 h, average ± SD of three independent experiments",5.8 ± 0.78 µM
same,p-EGFR/EGFR,"[1]; PC-9, 0.1 uM",0.3318
same,p-EGFR/EGFR relative to DMSO,"[1]; PC-9, 0.1 uM",0.2965
same,p-EGFR/EGFR,"[1]; PC-9, 1 uM",0.2248
same,p-EGFR/EGFR relative to DMSO,"[1]; PC-9, 1 uM",0.2009
same,p-EGFR/EGFR,"[1]; PC-9, 10 uM",0.5115
same,p-EGFR/EGFR relative to DMSO,"[1]; PC-9, 10 uM",0.4571
same,phosphorylation of EGFR (western blot),"[1]; PC-9, especially at 10 μM",suppressed
same,"apoptotic morphology, Hoechst 33342 staining",PC-9 cells [2],exhibited features typical of apoptosis
same,p-EGFR/EGFR,"[3]; H460, 0.1 uM",0.8093
same,p-EGFR/EGFR relative to DMSO,"[3]; H460, 0.1 uM",0.9725
same,p-EGFR/EGFR,"[3]; H460, 1 uM",0.8837
same,p-EGFR/EGFR relative to DMSO,"[3]; H460, 1 uM",1.062
same,p-EGFR/EGFR,"[3]; H460, 10 uM",0.3865
same,p-EGFR/EGFR relative to DMSO,"[3]; H460, 10 uM",0.4645
same,phosphorylation of EGFR (western blot),"[3]; H460, especially at 10 μM",suppressed
same,G0/G1,"H460 cells [4]; H460, 4uM",42.32% and 41.29% and 53.43%
same,G2/M,"H460 cells [4]; H460, 4uM",16.95% and 17.5% and 12.27%
same,S,"H460 cells [4]; H460, 4uM",40.73% and 41.21% and 34.3%
same,G0/G1,"H460 cells [4]; H460, 8uM",48.11% and 44.75% and 59.66%
same,G2/M,"H460 cells [4]; H460, 8uM",16.79% and 18.81% and 11.77%
same,S,"H460 cells [4]; H460, 8uM",35.11% and 36.45% and 28.56%
same,G0/G1,"H460 cells [4]; H460, 12uM",48.29% and 43.3% and 54.65%
same,G2/M,"H460 cells [4]; H460, 12uM",17.85% and 18.86% and 13.72%
same,S,"H460 cells [4]; H460, 12uM",33.86% and 38.02% and 31.63%
same,percentage of cells in the G0/G1 phase,"H460 cells [4]; H460, various concentrations, 12 h",induced higher percentages
same,inhibition at 100 fM,"wild-type EGFR; concentration 0.0001 nM (reference for normalisation), one value per replicate column",0%
same,Inhibition,"wild-type EGFR; concentration 0.03 nM, one value per replicate column, 3e-05 µM",0.3205 and 0.9868
same,inhibition at 0.0003 µM,"wild-type EGFR; concentration 0.3 nM, one value per replicate column",8.65%
same,Inhibition,"wild-type EGFR; concentration 0.3 nM, one value per replicate column, 0.0003 µM",6.25
same,inhibition at 0.003 µM,"wild-type EGFR; concentration 3 nM, one value per replicate column",8.97%
same,Inhibition,"wild-type EGFR; concentration 3 nM, one value per replicate column, 0.003 µM",8.553
same,inhibition at 0.03 µM,"wild-type EGFR; concentration 30 nM, one value per replicate column",9.62%
same,Inhibition,"wild-type EGFR; concentration 30 nM, one value per replicate column, 0.03 µM",10.8553
same,inhibition at 0.3 µM,"wild-type EGFR; concentration 300 nM, one value per replicate column",10.3%
same,Inhibition,"wild-type EGFR; concentration 300 nM, one value per replicate column, 0.3 µM",11.1842
same,inhibition at 3 µM,"wild-type EGFR; concentration 3000 nM, one value per replicate column",13.8%
same,Inhibition,"wild-type EGFR; concentration 3000 nM, one value per replicate column, 3 µM",18.75
same,inhibition at 30 µM,"wild-type EGFR; concentration 30000 nM, one value per replicate column",70.2%
same,Inhibition,"wild-type EGFR; concentration 30000 nM, one value per replicate column, 30 µM",70.7237
same,A450,wild-type EGFR; concentration 0.0001 nM,0.554 and 0.551
same,A450,wild-type EGFR; concentration 0.03 nM,0.553 and 0.548
same,A450,wild-type EGFR; concentration 0.3 nM,0.527 and 0.532
same,A450,wild-type EGFR; concentration 3 nM,0.526 and 0.525
same,A450,wild-type EGFR; concentration 30 nM,0.524 and 0.518
same,A450,wild-type EGFR; concentration 300 nM,0.522 and 0.517
same,A450,wild-type EGFR; concentration 3000 nM,0.511 and 0.494
same,A450,wild-type EGFR; concentration 30000 nM,0.335 and 0.336
same,IC50,"wild-type EGFR; read-out: IC50 (μM) EGFR, ELISA, 3 μmol/L ATP",13 µM
same,p-AKT/AKT,"[5]; PC-9, 0.1 uM",0.8512
same,p-AKT/AKT relative to DMSO,"[5]; PC-9, 0.1 uM",0.8172
same,p-AKT/AKT,"[5]; PC-9, 1 uM",0.7155
same,p-AKT/AKT relative to DMSO,"[5]; PC-9, 1 uM",0.6869
same,p-AKT/AKT,"[5]; PC-9, 10 uM",0.5338
same,p-AKT/AKT relative to DMSO,"[5]; PC-9, 10 uM",0.5125
same,phosphorylation of AKT (western blot),"[5]; PC-9, especially at 10 μM",suppressed
same,G0/G1,"PC-9 cells [6]; PC-9, 4uM",48.12 and 48.79 and 52.62
same,G2/M,"PC-9 cells [6]; PC-9, 4uM",15.27 and 15.42 and 15.56
same,S,"PC-9 cells [6]; PC-9, 4uM",36.61 and 35.79 and 31.83
same,G0/G1,"PC-9 cells [6]; PC-9, 8uM",53.18 and 53.63 and 55.05
same,G2/M,"PC-9 cells [6]; PC-9, 8uM",16.92 and 17.15 and 16.88
same,S,"PC-9 cells [6]; PC-9, 8uM",29.9 and 29.22 and 28.08
same,G0/G1,"PC-9 cells [6]; PC-9, 12uM",60.53 and 62.02 and 63.46
same,G2/M,"PC-9 cells [6]; PC-9, 12uM",23.33 and 22.27 and 17.86
same,S,"PC-9 cells [6]; PC-9, 12uM",16.14 and 15.71 and 18.68
same,percentage of cells in the G0/G1 phase,"PC-9 cells [6]; PC-9, various concentrations, 24 h",induced higher percentages
same,Inhibitory efficacy,"H460 cells [7]; 1uM, given as fraction, Repeat 1-3",0.09927 and 0.1204
same,Inhibitory efficacy,"H460 cells [7]; 2uM, given as fraction, Repeat 1-3",0.08541 and 0.1118
same,Inhibitory efficacy,H460 cells [7]; [9],0.8422 and 0.8158
same,Inhibitory efficacy,H460 cells [7]; [10],0.9425 and 0.965
same,IC50,"H460 cells [7]; Homo sapiens, NCI-H460, 48 h, read-out: IC50 (μM) H460, CCK-8, 48 h, average ± SD of three independent experiments",< 10 µM
same,inhibition at 1 µM,"H460 cells [7]; Homo sapiens, NCI-H460, read-out: Inhibitory efficacy, H460 cells, 1uM, given as fraction, Repeat 1-3",19.4%
same,inhibition at 2 µM,"H460 cells [7]; Homo sapiens, NCI-H460, read-out: Inhibitory efficacy, H460 cells, 2uM, given as fraction, Repeat 1-3",16.7%
same,inhibition at 8 µM,"H460 cells [7]; Homo sapiens, NCI-H460, read-out: Inhibitory efficacy, H460 cells, 8uM, given as fraction, Repeat 1-3",79.5%
same,inhibition at 16 µM,"H460 cells [7]; Homo sapiens, NCI-H460, read-out: Inhibitory efficacy, H460 cells, 16uM, given as fraction, Repeat 1-3",95%
same,IC50,"H460 cells [7]; read-out: IC50 (μM) H460, CCK-8, 48 h, average ± SD of three independent experiments",5.18 ± 0.78 µM
same,Inhibitory efficacy,H1975 cells; 2uM,0.363 and 0.4168
same,Inhibitory efficacy,H1975 cells; 4uM,0.3676 and 0.4565
same,Inhibitory efficacy,H1975 cells; 8uM,0.9443
same,Inhibitory efficacy,H1975 cells; 16uM,0.9548 and 0.9653
same,inhibition at 2 µM,"H1975 cells; Homo sapiens, NCI-H1975, read-out: Inhibitory efficacy, H1975 cells, 2uM",30.2%
same,inhibition at 4 µM,"H1975 cells; Homo sapiens, NCI-H1975, read-out: Inhibitory efficacy, H1975 cells, 4uM",39.3%
same,inhibition at 8 µM,"H1975 cells; Homo sapiens, NCI-H1975, read-out: Inhibitory efficacy, H1975 cells, 8uM",92.2%
same,inhibition at 16 µM,"H1975 cells; Homo sapiens, NCI-H1975, read-out: Inhibitory efficacy, H1975 cells, 16uM",96.1%
same,p-AKT/AKT,"[8]; H460, 0.1 uM",1.245
same,p-AKT/AKT relative to DMSO,"[8]; H460, 0.1 uM",1.252
same,p-AKT/AKT,"[8]; H460, 1 uM",0.733
same,p-AKT/AKT relative to DMSO,"[8]; H460, 1 uM",0.7369
same,p-AKT/AKT,"[8]; H460, 10 uM",1.039
same,p-AKT/AKT relative to DMSO,"[8]; H460, 10 uM",1.044
same,phosphorylation of AKT (western blot),"[8]; H460, especially at 10 μM",suppressed
